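These data come from cells grown in 96-well plates and exposed to compound for 48 hours at five concentrations. GI50: concentration for 50% inhibition of growth.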 The source made the active and inactive calls. Rule as the data show it: active = GI50 up to about 1.1 µM and inactive = higher.
Legend:
Experiment in all cases: DTP human tumour cell line panel, 48 h
[1] = system: A549
[2] = system: ACHN
[3] = system: CCRF-CEM
[4] = system: COLO 205
[5] = system: DU-145
[6] = system: HCC 2998
[7] = system: HCT-116
[8] = system: HCT-15
[9] = system: HL-60
[10] = system: HOP-92
[11] = system: HT-29
[12] = system: Hs-578T
[13] = system: K562
[14] = system: KM12
[15] = system: LOX IMVI
[16] = system: M14
[17] = system: MCF7
[18] = system: MDA-MB-231
[19] = system: MDA-MB-435
[20] = system: MDA-N
[21] = system: MOLT-4
[22] = system: NCI-H226
[23] = system: NCI-H23
[24] = system: NCI-H460
[25] = system: NCI/ADR-RES
[26] = system: OVCAR-3
[27] = system: OVCAR-8
[28] = system: PC-3
[29] = system: RXF 393
[30] = system: SF-268
[31] = system: SF-295
[32] = system: SK-MEL-28
[33] = system: SK-MEL-5
[34] = system: SK-OV-3
[35] = system: SN12C
[36] = system: SNB-19
[37] = system: SNB-75
[38] = system: SR
[39] = system: SW-620
[40] = system: T47D
[41] = system: TK-10
[42] = system: U-251
[43] = system: UACC-257
[44] = system: UO-31

CCOC(O)C(F)(F)F (centres undefined)
GI50 [1]: > 100 µM (inactive) | GI50 [2]: > 100 µM (inactive) | GI50 [3]: > 100 µM (inactive) | GI50 [4]: > 100 µM (inactive) | GI50 [5]: > 100 µM (inactive) | GI50 [6]: > 100 µM (inactive) | GI50 [7]: > 100 µM (inactive) | GI50 [8]: > 100 µM | GI50 [9]: > 100 µM (inactive) | GI50 [10]: > 100 µM (inactive) | GI50 [11]: > 100 µM (inactive) | GI50 [12]: > 100 µM (inactive) | GI50 [13]: > 100 µM (inactive) | GI50 [14]: > 100 µM (inactive) | GI50 [15]: > 100 µM (inactive) | GI50 [16]: > 100 µM (inactive) | GI50 [17]: > 100 µM (inactive) | GI50 [18]: > 100 µM (inactive) | GI50 [19]: > 100 µM (inactive) | GI50 [20]: > 100 µM (inactive) | GI50 [21]: > 100 µM (inactive) | GI50 [22]: > 100 µM (inactive) | GI50 [23]: > 100 µM (inactive) | GI50 [24]: > 100 µM (inactive) | GI50 [25]: > 100 µM (inactive) | GI50 [26]: > 100 µM (inactive) | GI50 [27]: > 100 µM (inactive) | GI50 [28]: > 100 µM (inactive) | GI50 [29]: > 100 µM (inactive) | GI50 [30]: > 100 µM (inactive) | GI50 [31]: > 100 µM (inactive) | GI50 [32]: > 100 µM (inactive) | GI50 [33]: > 100 µM (inactive) | GI50 [34]: > 100 µM (inactive) | GI50 [35]: > 100 µM (inactive) | GI50 [36]: > 100 µM (inactive) | GI50 [37]: > 100 µM (inactive) | GI50 [38]: > 100 µM (inactive) | GI50 [39]: > 100 µM (inactive) | GI50 [40]: > 100 µM (inactive) | GI50 [41]: > 100 µM (inactive) | GI50 [42]: > 100 µM (inactive) | GI50 [43]: > 100 µM (inactive) | GI50 [44]: > 100 µM (inactive)

Source: ChEMBL document CHEMBL1201862, “PubChem BioAssay data set” (2004)
